Assay results reported in patent publication US11230586B2, “Exosome production method” (TOAGOSEI CO., LTD., priority 2019, dated 2022).
Ends that are not written are not given here.

Key:
HeLa cells [1] = assay: Measurement of amount of protein per exosome particle (BCA assay, equation (1)); type: cell-based, human
From the text: More specifically, the analyzing step preferably includes, for example, measurement of the total of amount of protein P (μg/mL) contained in the exosome fraction. A conventionally known method (such as BCA assay) can be used without any particular limitations to measure the amount of proteins. As a result, the average amount of protein per exosome, EP (μg), can be calculated based on the following equation (1). […]
(§1) More specifically, a currently commercially available human cervical cancer cell line (HeLa cells) was used as the test cultured cells.
(§2) α-MEM medium containing 10% FBS (product of Gibco) was used to culture the HeLa cells. Furthermore, FBS free of native exosomes derived from animal serum was used for the FBS.
(§3) A suitable amount of medium containing FBS at a concentration of 10% was placed in cell culture dishes having a diameter of 100 mm followed by seeding with HeLa cells so that the number of cells per dish was about 2×10^6 cells.
(§4) Next, the cells were cultured in a-MEM medium containing 10% FBS having the sample peptide suspended therein at a concentration of 5 μM under conditions of 5% CO2 at 37° C. for 48 hours.
Subsequently, the culture broth was obtained and subjected to ultracentrifugation to isolate and recover the exosomes. […]
The amount of protein was measured for each of the three exosome fractions produced as described above. […]

HeLa cells [2] = assay: Calculation of number of exosomes in exosome fractions from treated HeLa cells (NanoSight LM10); type: cell-based, human
From the text: as §1, §2, §3, §4
Subsequently, the culture broth was obtained and subjected to ultracentrifugation to isolate and recover the exosomes. More specifically, centrifugation was carried out continuously as described below under conditions of 4° C. […]
The number of exosomes was calculated for each of the three exosome fractions produced as described above. More specifically, the numbers of exosome particles in the exosome fractions were counted followed by calculating the number of exosomes using NanoSight LM10 (Malvern Panalytical Ltd.).

Substance: FIGNLALSDLLAGVAYTANLLLKKRTLRKNDRKKR-CONH2 (FIGNLALSDLLAGVAYTANLLLKKRTLRKNDRKKR-NH2) [Example]
- Amount of protein (HeLa cells [1]; HeLa cells cultured 48 hours with 5 μM test substance, total protein by BCA divided by particle number): 5.9 ×10^−8 μg/exosome
- amount of proteins in the exosomes (change, in words) (HeLa cells [1]; HeLa cells, 5 μM, 48 hours, in comparison with Comparative Example 1 and Comparative Example 2): decreased considerably
- Exosome concentration (HeLa cells [2]; HeLa cells cultured 48 hours with 5 μM test substance, exosome fraction by ultracentrifugation, suspended in PBS): 8.31e+08 mL⁻¹
- number of exosomes (change, in words) (HeLa cells [2]; HeLa cells, 5 μM, 48 hours, versus Comparative Examples): increase considerably
